In data set [1] the test system is Aspergillus fumigatus. Kind of data set: Antifungal activity against Aspergillus fumigatus isolate Af293 infected in immunosuppressed ICR mouse assessed as pulmonary fungal burden at 1 mg/kg, ip once daily administered 1 day post infection measured on day 8 by real-time quantitative PCR. In kind it is functional. Particulars: route intraperitoneal.
In data set [2] the test system is Aspergillus fumigatus. Kind of data set: Antifungal activity against Aspergillus fumigatus isolate Af293 infected in immunosuppressed ICR mouse assessed as conidial equivalents per gram of tissue at 1 mg/kg, ip once daily administered 1 day post infection measured on day 8 by real-time quantitative PCR. In kind it is functional. Particulars: route intraperitoneal.

The subject of data set [3] is Aspergillus fumigatus. Kind of data set: Antifungal activity against Aspergillus fumigatus isolate Af293 infected in immunosuppressed ICR mouse assessed as increased survival of mouse at 1 mg/kg, ip once daily until day 7. In kind it is functional. The following applies: route intraperitoneal.
Data set [4] concerns Aspergillus fumigatus. Kind of data set: Antifungal activity against Aspergillus fumigatus isolate Af293 infected in immunosuppressed ICR mouse assessed as increased survival of mouse at 1 mg/kg, ip once daily until day 12. In kind it is functional. The following applies: route intraperitoneal.
Data set [5] concerns Aspergillus fumigatus. Briefly: Antifungal activity against Aspergillus fumigatus isolate Af293 infected in immunosuppressed ICR mouse assessed as median survival time at 1 mg/kg, ip once daily. In kind it is functional. Particulars: route intraperitoneal.
In data set [6] the test system is Aspergillus fumigatus. Kind of data set: Antifungal activity against Aspergillus fumigatus isolate Af293 infected in immunosuppressed ICR mouse assessed as median survival time at 3 mg/kg, ip once daily. Particulars: route intraperitoneal. In kind it is functional.
Data set [7] deals with Aspergillus fumigatus. Kind of data set: Antifungal activity against Aspergillus fumigatus isolate Af293 infected in immunosuppressed ICR mouse assessed as decrease in invasive lung disease at 6.25 mg/ml twice daily administered 2 days prior to infection via nebulization measured on day 8 by light microscopic analysis. In kind it is functional, organism-based.
For data set [8], the system named is Aspergillus fumigatus. Kind of data set: Antifungal activity against Aspergillus fumigatus isolate Af293 infected in immunosuppressed ICR mouse assessed as assessed as decrease in invasive lung disease at 1 mg/kg, ip once daily measured on day 8 by light microscopic analysis. In kind it is functional, organism-based. Details: dose 1 mg/kg.
Data set [9] relates to Aspergillus fumigatus. Briefly: Antifungal activity against Aspergillus fumigatus isolate Af293 infected in immunosuppressed ICR mouse assessed as decreased lung vascular damage at 1 mg/kg, ip once daily measured on day 8 by histopathological analysis. In kind it is functional, organism-based. Also noted: dose 1 mg/kg.
In data set [10] the test system is Aspergillus fumigatus. Kind of data set: Antifungal activity against Aspergillus fumigatus isolate Af293 infected in immunosuppressed ICR mouse assessed as assessed as decrease in invasive lung disease at 1 mg/kg, ip once daily measured on day 12 by light microscopic analysis. In kind it is functional, organism-based. Details: dose 1 mg/kg.
Data set [11] concerns Aspergillus fumigatus. Kind of data set: Antifungal activity against Aspergillus fumigatus isolate Af293 infected in immunosuppressed ICR mouse assessed as decreased lung vascular damage at 1 mg/kg, ip once daily measured on day 12 by histopathological analysis. Details: dose 1 mg/kg. In kind it is functional, organism-based.
The subject of data set [12] is Mus musculus. Kind of data set: Toxicity in immunosuppressed ICR mouse assessed as lung injury at 6.25 mg/ml twice daily administered 2 days prior to infection via nebulization. In kind it is organism-based. Particulars: in vivo, inhaled_or_intranasal, 48 h.
Data set [13] deals with Aspergillus fumigatus. Kind of data set: Antifungal activity against Aspergillus fumigatus isolate Af293 infected in immunosuppressed ICR mouse assessed as pulmonary fungal burden at 6.25 mg/ml twice daily administered 2 days prior to infection via nebulization measured on day 8 by real-time quantitative PCR. In kind it is functional.
The test system of data set [14] is Aspergillus fumigatus. Kind of data set: Antifungal activity against Aspergillus fumigatus isolate Af293 infected in immunosuppressed ICR mouse assessed as conidial equivalents per gram of tissue at 6.25 mg/ml twice daily administered 2 days prior to infection via nebulization measured on day 8 by real-time quantitative PCR. In kind it is functional.
Data set [15] has as its system Aspergillus fumigatus. Briefly: Antifungal activity against Aspergillus fumigatus isolate Af293 infected in immunosuppressed ICR mouse assessed as increased survival of mouse at 6.25 mg/ml twice daily administered 2 days prior to infection via nebulization until day 7 (Rvb= 25%). In kind it is functional.
Data set [16] relates to Aspergillus fumigatus. Briefly: Antifungal activity against Aspergillus fumigatus isolate Af293 infected in immunosuppressed ICR mouse assessed as increased survival of mouse at 6.25 mg/ml twice daily administered 2 days prior to infection via nebulization until day 12 (Rvb= 17%). In kind it is functional.
Data set [17] concerns Aspergillus fumigatus. Briefly: Antifungal activity against Aspergillus fumigatus isolate Af293 infected in immunosuppressed ICR mouse assessed as median survival time at 6.25 mg/ml twice daily 2 days prior to infection via nebulization. In kind it is functional.
Data set [18] relates to Aspergillus fumigatus. Kind of data set: Antifungal activity against Aspergillus fumigatus isolate Af293 infected in immunosuppressed ICR mouse assessed as decreased lung vascular damage at 6.25 mg/ml twice daily administered 2 days prior to infection via nebulization measured on day 8 by histopathological analysis. In kind it is functional, organism-based.
In data set [19] the test system is Aspergillus fumigatus. Kind of data set: Antifungal activity against Aspergillus fumigatus isolate Af293 infected in immunosuppressed ICR mouse assessed as decrease in invasive lung disease at 6.25 mg/ml twice daily administered 2 days prior to infection via nebulization measured on day 12 by light microscopic analysis. In kind it is functional, organism-based.

The test system of data set [20] is Aspergillus fumigatus. Kind of data set: Antifungal activity against Aspergillus fumigatus isolate Af293 infected in immunosuppressed ICR mouse assessed as decreased lung vascular damage at 6.25 mg/ml twice daily administered 2 days prior to infection via nebulization measured on day 12 by histopathological analysis. In kind it is functional, organism-based.
Data set [21] is described as follows: Cmax in mouse lung. In kind it is ADME, organism-based.
Data set [22] can be described thus: Cmax in mouse serum. In kind it is ADME, organism-based.
In data set [23] the test system is Mus musculus. Briefly: Toxicity in immunosuppressed ICR mouse assessed as inflammatory changes at 6.25 mg/ml twice daily administered 2 days prior to infection via nebulization. In kind it is organism-based. Particulars: in vivo, inhaled_or_intranasal, 48 h.

Calls of active or inactive are those of the source. No cut-off for these calls is given here.

`C[C@@H]1[C@H](O)[C@@H](C)/C=C/C=C/C=C/C=C/C=C/C=C/C=C/[C@H](O[C@@H]2O[C@H](C)[C@@H](O)[C@H](N)[C@@H]2O)C[C@@H]2O[C@](O)(C[C@@H](O)C[C@@H](O)[C@H](O)CC[C@@H](O)C[C@@H](O)CC(=O)O[C@H]1C)C[C@H](O)[C@H]2C(=O)O` [AMPHOTERICIN B]: in the data set with Aspergillus fumigatus [1], the log10cfu is reported as 4.33. For the same molecule, the Activity with Aspergillus fumigatus [2] is 5.26; with Aspergillus fumigatus [3], 31%; with Aspergillus fumigatus [4], 23%; in the data set on Aspergillus fumigatus [6], 50%. In addition, the Time in the data set with Aspergillus fumigatus [5] was 7 days. Further, in the data set on Aspergillus fumigatus [7], the outcome was Active. For the same molecule, the result with Aspergillus fumigatus [8], with Aspergillus fumigatus [9], in the data set on Aspergillus fumigatus [10] and in the data set on Aspergillus fumigatus [11] was inactive.
By Cmax is commonly meant the peak of the concentration-time curve. Consider `C[C@@H](c1ncncc1F)[C@](O)(Cn1cncn1)c1ccc(F)cc1F` [VORICONAZOLE], for which the Activity result in the data set on Mus musculus [12] is recorded as “Non-toxic”; with Aspergillus fumigatus [14] it was 5.24; with Aspergillus fumigatus [15], 92%; in the data set on Aspergillus fumigatus [16], 67%; in the data set on Mus musculus [23], “Non-toxic”. Moreover, the log10cfu in the data set on Aspergillus fumigatus [13] worked out at 4.21. Moreover, the Time in the data set on Aspergillus fumigatus [17] is greater than 12 days. The result in the data set with Aspergillus fumigatus [18], in the data set with Aspergillus fumigatus [19] and with Aspergillus fumigatus [20] was Active. Moreover, the Cmax in [21] came out at 6730 ng/g; in [22], 2320 ng/mL.

The values above are taken from ChEMBL document CHEMBL1649437, “Inhaled voriconazole for prevention of invasive pulmonary aspergillosis” (Antimicrob Agents Chemother, 2009).
